{"source": "paper PMC3913652", "about": "(PLoS ONE, 2014)", "key": {"[1]": {"experiment": "Stability in pancreatic digestive enzyme mix", "format": "in vitro ADME", "conditions": "50 mM phosphate buffer pH 6.8, peptide 30 mM, 20:1 peptide to pancreatic mixture, 37°C, reverse-phase HPLC, AUC 0–2 h as % remaining vs stable control ± SEM, n = 3 (exenatide, [Leu^14]exenatide-ABP n = 2)", "protocol": "Stability of peptides was also assessed in a mixture of amylase, lipase and protease (pancreatin, Cat.# P7545-25 g, Sigma-Aldrich, St. Louis, MO), which are digestive enzymes produced by pancreatic exocrine cells. Peptides (30 mM) in 50 mM phosphate buffer (pH 6.8) and citrate buffers (pH 4 & pH 5) were incubated for 2 hours in pancreatic mixture at 37°C (20∶1 ratio of peptide to pancreatic mixture) (n = 3). The enzymatic reaction was stopped with the addition of 0.2 N HCl (final concentration of peptide 10 mM) at each time point."}, "rat GLP-1 receptor": {"biological_target": "T1, rat GLP-1 receptor (Rattus norvegicus, UniProt P32301)", "T1 construct": "6–23 clone 6 cells endogenously expressing the rat GLP-1 receptor; endogenous in cells; host or cells: 6-23 clone 6 cells", "T1 sequence (P32301 22-463)": "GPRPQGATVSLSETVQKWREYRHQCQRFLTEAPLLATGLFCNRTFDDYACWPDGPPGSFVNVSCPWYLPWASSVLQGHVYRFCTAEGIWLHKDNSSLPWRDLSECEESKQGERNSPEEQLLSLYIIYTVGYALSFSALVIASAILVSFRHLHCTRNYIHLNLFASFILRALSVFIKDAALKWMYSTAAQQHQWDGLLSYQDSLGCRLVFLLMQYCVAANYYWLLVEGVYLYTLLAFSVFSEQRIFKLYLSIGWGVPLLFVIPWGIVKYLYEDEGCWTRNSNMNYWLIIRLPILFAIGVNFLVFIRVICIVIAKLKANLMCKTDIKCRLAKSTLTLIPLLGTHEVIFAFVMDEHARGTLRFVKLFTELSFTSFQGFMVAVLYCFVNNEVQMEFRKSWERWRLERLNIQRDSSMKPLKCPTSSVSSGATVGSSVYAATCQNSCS", "experiment": "GLP-1 receptor functional assay (cAMP)", "format": "cell-based", "conditions": "6–23 clone 6 cells, HBSS 0.1% BSA, 250 µM IBMX, 30 minutes, quadruplicates", "protocol": "Following 30 minutes incubation, the cAMP was measured using the cAMP Dynamic 2 assay (Cisbio US, Bedford, MA) as per the manufacturer’s instructions. cAMP was detected by a decrease in time-resolved fluorescence energy transfer using a GeniousPro plate reader (Tecan US, San Jose, CA).\nResults are presented as means ± SEM, graphed and analyzed using GraphPad Prism 5®. The potency of peptides in the in vitro functional assay and in an OGTT was determined by the analysis of concentration-response curves using non-linear regression analysis."}}, "data": [{"smiles": "CC[C@H](C)[C@H](NC(=O)[C@H](Cc1c[nH]cn1)NC(=O)[C@H](CC(C)C)NC(=O)[C@H](CCCCN)NC(=O)[C@H](CC(C)C)NC(=O)[C@H](C)NC(=O)[C@H](CCC(=O)O)NC(=O)[C@@H](NC(=O)CNC(=O)[C@H](CCC(=O)O)NC(=O)[C@@H](NC(=O)[C@@H](NC(=O)[C@H](CCCCN)NC(=O)[C@H](C)NC(=O)[C@H](CCCCN)NC(=O)[C@H](CC(N)=O)NC(=O)[C@@H](NC(=O)[C@H](CC(C)C)NC(=O)[C@H](CCCNC(=N)N)NC(=O)[C@H](CCCCN)NC(=O)[C@H](Cc1ccc(O)cc1)NC(=O)[C@H](Cc1ccccc1)NC(=O)[C@H](CC(=O)O)NC(=O)[C@H](CO)NC(=O)[C@@H](NC(=O)CNC(=O)[C@H](Cc1ccc(O)cc1)NC(=O)[C@H](CCCCN)NC(=O)[C@H](CC(=O)O)NC(=O)[C@H](CC(C)C)NC(=O)[C@H](CCC(=O)O)NC(=O)[C@H](CCCNC(=N)N)NC(=O)[C@H](CC(N)=O)NC(=O)[C@H](C)NC(=O)[C@H](CC(C)C)NC(=O)[C@@H](NC(=O)[C@H](CCCCN)NC(=O)[C@H](C)NC(=O)[C@H](CCC(=O)O)NC(=O)[C@H](C)NC(=O)[C@@H](N)CC(C)C)C(C)C)C(C)C)[C@@H](C)CC)[C@@H](C)O)C(C)C)C(C)C)C(=O)N[C@@H](CC(C)C)C(=O)N[C@@H](C)C(=O)N[C@@H](C)C(=O)N[C@@H](CC(C)C)C(=O)N1CCC[C@H]1C(=O)O", "note": "[ABD035]", "values": [{"measurement": "2 h Stability in Pancreatin Mix (%) pH 6.8", "setting": "[1]", "result": "10±2", "unit": "%"}, {"measurement": "GLP-1 Receptor Functional Assay EC50", "setting": "rat GLP-1 receptor", "result": "not active"}]}]}
